In US20240148821A1, “PHARMACEUTICAL USE OF CYCLIC PEPTIDE COMPOUND” (CHUGAI SEIYAKU KABUSHIKI KAISHA, priority 2021, published 2024):
Numbered stars: 1 amine (or outer) side, 2 acyl side, 3 side chain; on linkers, the order of the positions; unused ones are H or OH. Bridge positions count the residues as written; N and C are the ends. Square brackets hold non-standard residues; d marks the D form. Peptide text beside a SMILES is read from it. * marks the point of attachment. hPhe(3,5-F2-4-CF3) = N[C@@H](CCc1cc(F)c(C(F)(F)F)c(F)c1)C(=O)O; hPhe(3-Cl-4-CF3) = N[C@@H](CCc1ccc(C(F)(F)F)c(Cl)c1)C(=O)O; NEtPhe(4-CF3) = CCN[C@@H](Cc1ccc(C(F)(F)F)cc1)C(=O)O; NMePhe(4-CF3) = CN[C@@H](Cc1ccc(C(F)(F)F)cc1)C(=O)O; NMePhe(3,4-F2) = CN[C@@H](Cc1ccc(F)c(F)c1)C(=O)O; NMedβ3hAla = C[C@H](CC(=O)[*:2])N(C)[*:1]; NMeCha = CN[C@@H](CC1CCCCC1)C(=O)O; Hyp = O=C(O)[C@@H]1C[C@@H](O)CN1; NMeChg = CN[C@H](C(=O)O)C1CCCCC1; NMeI = CC[C@H](C)[C@H](NC)C(=O)O; X17 = FC1(F)CN(*)CC(F)(F)C1(F)F; NMeD = CN[C@@H](CC(=O)O)C(=O)O; NMeL = CN[C@@H](CC(C)C)C(=O)O; NMeV = CN[C@H](C(=O)O)C(C)C; d(β3hA) = C[C@@H](N)CC(=O)O; NMeS = CN[C@@H](CO)C(=O)O; Morpholide = C1CN(*)CCO1; NMeA = CN[C@@H](C)C(=O)O; Piperidide = C1CCN(*)CC1; Ac5c = NC1(C(=O)O)CCCC1; Aze = O=C(O)[C@@H]1CCN1; Ac4c = NC1(C(=O)O)CCC1; Ac3c = NC1(C(=O)O)CC1; Sar = CNCC(=O)O; Propyl = CCC*

Legend:
[1] = molecular target: protein-protein interaction between Kras and SOS1 (biotin-tagged human Kras loaded with GDP, His-tagged human SOS1) (Homo sapiens (Human), UniProt P01116, G12D); assay: Protein-protein interaction inhibition between Kras and SOS1 (KrasG12D-SOS PPI) using AlphaScreen; format: biochemical; settings: AlphaScreen; biotin-tagged human Kras loaded with GDP, His-tagged human SOS1; read-out: KRAS G12D-SOS PPI IC50;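 further: kras produced in E. coli, Ni-coupled donor beads and streptavidin acceptor beads, excitation 680 nm with emission detected at 520–620 nm via singlet oxygen transfer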
[2] = test system: Human pancreatic cancer cell line AsPC-1 (G12D mutation Kras); assay: AsPC-1 cell growth inhibition (AsPC-1 CGI); format: cell-based; settings: read-out: AsPC-1 cell growth inhibition, 50% growth inhibitory concentration (IC50 value); 96 hours, CellTiter-Glo, values classified in ranges
Procedure: Test compounds were serially dilated with dimethyl sulfoxide, and 200 nL was then dispensed to a U-bottom 96-well plate using Labcyte Echo. […] The cell suspension was dispensed to a. plate containing a test compound at 100 μL per well and incubated at 37° C. in a 5% carbon dioxide gas incubator. 96 hours later, 80 μL of CellTiter-Glo (Promega) was added to each well and fluorescence was measured.

Row | Structure (SMILES) | IC50 [1] [nM] | IC50 [2] [nM]
1 | CC[C@H](C)[C@@H]1NC(=O)[C@H](CC(C)C)N(C)C(=O)C[C@@H](C(=O)N2CC(F)(F)C(F)(F)C(F)(F)C2)N(C)C(=O)[C@H](C2CCCCC2)N(C)C(=O)C2(CCCC2)NC(=O)[C@@H]2CCCN2C(=O)[C@H](CCc2ccc(C(F)(F)F)c(Cl)c2)NC(=O)CN(C)C(=O)[C@H](CC2CCCCC2)N(C)C(=O)CN(C)C(=O)CN(C)C1=O [Compound 1229] ([NMeL]I[Sar][Sar][NMeCha][Sar][hPhe(3-Cl-4-CF3)]P[Ac5c][NMeChg][NMeD]-X17; lactam N-11) | 46 | > 500
2 | CC[C@H](C)[C@@H]1NC(=O)[C@H](CC(C)C)N(C)C(=O)C[C@@H](C(=O)N2CCOCC2)N(C)C(=O)[C@H]([C@@H](C)CC)N(C)C(=O)C2(CCCC2)NC(=O)[C@@H]2CCCN2C(=O)[C@H](CCc2ccc(C(F)(F)F)c(Cl)c2)NC(=O)CN(C)C(=O)[C@H](Cc2ccc(C(F)(F)F)cc2)N(C)C(=O)[C@@H]2CCN2C(=O)[C@H](C)N(C)C1=O [Compound 276] ([NMeL]I[NMeA][Aze][NMePhe(4-CF3)][Sar][hPhe(3-Cl-4-CF3)]P[Ac5c][NMeI][NMeD]-Morpholide; lactam N-11) | 0.76 | ≤ 20
3 | CC[C@H](C)[C@@H]1NC(=O)[C@H](CC(C)C)N(C)C(=O)C[C@@H](C)NC(=O)[C@H](CC(C)C)N(C)C(=O)C2(CCCC2)NC(=O)[C@H](CC(C)C)N(C)C(=O)[C@H](CCc2ccc(C(F)(F)F)c(Cl)c2)NC(=O)CN(C)C(=O)[C@H](CC2CCCCC2)N(C)C(=O)CN(C)C(=O)CN(C)C1=O [Compound 217] (cyclo([Ac5c][NMeL][d(β3hA)][NMeL]I[Sar][Sar][NMeCha][Sar][hPhe(3-Cl-4-CF3)][NMeL])) | 66 | > 500
4 | CCCOC[C@H]1C(=O)NC2(CCCC2)C(=O)N(C)[C@@H](C2CCCCC2)C(=O)N(C)[C@H](C(=O)N2CCCCC2)CC(=O)N(C)[C@@H](CC(C)C)C(=O)N[C@@H]([C@@H](C)CC)C(=O)N(C)CC(=O)N(C)CC(=O)N(C)[C@@H](CC2CCCCC2)C(=O)N(C)CC(=O)N[C@@H](CCc2ccc(C(F)(F)F)c(Cl)c2)C(=O)N1C [Compound 692] ([NMeL]I[Sar][Sar][NMeCha][Sar][hPhe(3-Cl-4-CF3)][NMeS](Propyl)[Ac5c][NMeChg][NMeD]-Piperidide; lactam N-11) | 6.9 | > 500
5 | CC[C@H](C)[C@@H]1NC(=O)[C@H](CC(C)C)N(C)C(=O)C[C@@H](C(=O)N2CCCCC2)N(C)C(=O)[C@H](C(C)C)N(C)C(=O)C2(CC2)NC(=O)[C@@H]2CCCN2C(=O)[C@H](CCc2ccc(C(F)(F)F)c(Cl)c2)NC(=O)CN(C)C(=O)[C@H](CC2CCCCC2)N(C)C(=O)[C@@H]2CCN2C(=O)[C@H](C)N(C)C1=O [Compound 1695] ([NMeL]I[NMeA][Aze][NMeCha][Sar][hPhe(3-Cl-4-CF3)]P[Ac3c][NMeV][NMeD]-Piperidide; lactam N-11) | 8 | > 500
6 | CC[C@H](C)[C@@H]1NC(=O)[C@H](CC(C)C)N(C)C(=O)C[C@@H](C(=O)N2CCCCC2)N(C)C(=O)[C@H](C(C)C)N(C)C(=O)C2(CCCC2)NC(=O)[C@@H]2CCCN2C(=O)[C@H](CCc2ccc(C(F)(F)F)c(Cl)c2)NC(=O)CN(C)C(=O)[C@H](C)N(C)C(=O)[C@@H]2CCN2C(=O)[C@H](C)N(C)C1=O [Compound 1674] ([NMeL]I[NMeA][Aze][NMeA][Sar][hPhe(3-Cl-4-CF3)]P[Ac5c][NMeV][NMeD]-Piperidide; lactam N-11) | 58 | > 500
7 | CC[C@H](C)[C@@H]1NC(=O)[C@H](C)N(C)C(=O)C[C@@H](C(=O)N2CCCCC2)N(C)C(=O)[C@H](C(C)C)N(C)C(=O)C2(CCCC2)NC(=O)[C@H](Cc2ccc(F)c(F)c2)N(C)C(=O)[C@H](CCc2ccc(C(F)(F)F)c(Cl)c2)NC(=O)CN(C)C(=O)[C@H](CC2CCCCC2)N(C)C(=O)CN(C)C(=O)CN(C)C1=O [Compound 171] ([NMeA]I[Sar][Sar][NMeCha][Sar][hPhe(3-Cl-4-CF3)][NMePhe(3,4-F2)][Ac5c][NMeV][NMeD]-Piperidide; lactam N-11) | 14 | > 500
8 | CCO[C@@H]1C[C@H]2C(=O)NC3(CCCC3)C(=O)N(C)[C@@H]([C@@H](C)CC)C(=O)N(C)[C@H](C)CC(=O)N(C)[C@@H](CC(C)C)C(=O)N[C@@H]([C@@H](C)CC)C(=O)N(C)[C@@H](C)C(=O)N3CC[C@H]3C(=O)N(C)[C@@H](Cc3ccc(C(F)(F)F)cc3)C(=O)N(C)CC(=O)N[C@@H](CCc3ccc(C(F)(F)F)c(Cl)c3)C(=O)N2C1 [Compound 301] (cyclo([Ac5c][NMeI][NMedβ3hAla][NMeL]I[NMeA][Aze][NMePhe(4-CF3)][Sar][hPhe(3-Cl-4-CF3)][Hyp](Et))) | 0.74 | ≤ 20
9 | CCO[C@@H]1C[C@H]2C(=O)NC3(CCC3)C(=O)N(C)[C@@H]([C@@H](C)CC)C(=O)N(C)[C@H](C)CC(=O)N(C)[C@@H](CC(C)C)C(=O)N[C@@H]([C@@H](C)CC)C(=O)N(C)[C@@H](C)C(=O)N3CC[C@H]3C(=O)N(CC)[C@@H](Cc3ccc(C(F)(F)F)cc3)C(=O)N(C)CC(=O)N[C@@H](CCc3cc(F)c(C(F)(F)F)c(F)c3)C(=O)N2C1 [Compound 731] (cyclo([Ac4c][NMeI][NMedβ3hAla][NMeL]I[NMeA][Aze][NEtPhe(4-CF3)][Sar][hPhe(3,5-F2-4-CF3)][Hyp](Et))) | 3.5 | ≤ 20
